In patent US20260355184A1, “SMALL MOLECULE DEGRADERS OF HIV-1 TAT PROTEIN” (priority 2022, published 2026):
Entries after “also recorded” stand apart in the source; their conditions may differ.

Assays:
Flag-Tat = target: T1, Flag-Tat (Human immunodeficiency virus type 1 (HXB3 ISOLATE), UniProt P69698); experiment: Degradation assay: Flag-Tat in HEK293T cells, western blot; format: cell-based, HIV; conditions: for effect of chloroquine or NH4Cl on compound induced Flag-Tat degradation: Chloroquine 100 μM or NH4Cl 50 mM, 8 hrs; for Flag-Tat degradation / steady state: western blot; for effect of Lenalidomide on compound induced Flag-Tat degradation: Lenalidomide 40 μM, 4 hrs; for effect of MG132 on compound induced Flag-Tat degradation: MG132 20 μM, 17 hrs
T1 construct: Tat 86 aa likely (9 lysines)
Procedure: Next, the effect of the three leads on the alteration of Tat steady state levels was assessed. Tat expression from an integrated provirus, or from HIV acute infection is generally too low to be detected by western blot. Furthermore, antibodies against Tat are known for their lack of avidity. Tat degradation was thus assessed upon transfection. Flag-Tat or Flag-GFP were individually transfected into HEK293T and 24 hrs later, TT-44856, TT-44863 or TT-44881 were added to the culture, followed by Western blot 24 hrs later (dubbed “degradation assay”) (FIG. 5A). […] These cells were treated with TNFα (previously determined not be degraded by the three leads in FIG. 2D) in the presence of TT-44856, TT-44863 or TT-44881, followed by western blot with an anti-Flag antibody 17 hrs later. […] Finally, the leads' impact on recombinant Tat protein in HEK293T cells was assessed (FIG. 5D). HEK293T cells were incubated with recombinant Tat for 4 hrs to allow Tat internalization, followed by several thorough washes to remove unincorporated Tat. Cells were then incubated with all three leads (or Triptolide) for an additional 2 hrs. Cells were lysed and analyzed by western blot with an anti-Tat serum.
Degradation of Tat has been reported in the literature in multiple ways, including the lysosomal pathway^23, the ubiquitin-independent 20S proteasomal pathway (due to its unfolded structure)^24,25, and the ubiquitin-dependent 26S proteasomal pathway^26. It was first assessed whether Tat was targeted to the lysosomal pathway by the lead compounds. HEK293T cells were transfected with Flag-Tat for 24 hrs, incubated with the compounds for an additional 24 hrs, then treated for 8 hrs with either 100 μM chloroquine or 50 mM NH4Cl, both known to inhibit lysosomal hydrolases by reducing acidification. […] Both the 20S and the 26S proteasomal pathways were next investigated using MG132, an inhibitor of the catalytic […] of 20S present in both pathways^27. The degradation assay was carried out as above, but compounds were simultaneously incubated with MG132 20 μM or DMSO for 17 hrs followed by western blot. In the presence of MG132, Tat degradation was rescued, but the rescue was higher in the presence of the lead compounds (FIG. 6B).
Protein ubiquitination occurs by sequential recruitment of ubiquitin-activating enzyme E1, ubiquitin-conjugating enzyme E2, and ubiquitin ligase E3 (using ubiquitin, substrate protein, and ATP). The selectivity in protein ubiquitination is conferred by E3 ubiquitin ligases that recognize the substrate proteins^29 and the human genome contains more than 600 E3 ubiquitin ligases^29. To determine whether the small molecule leads trigger the 20S or the 26S proteasomal pathways, the Tat degradation assay was performed in the presence of commercially available E3 ligase inhibitors, including Lenalidomide a E3 ubiquitin ligase Cereblon inhibitor. Cereblon has not been previously reported to ubiquitinate Tat. The degradation assays were performed as above with Lenalidomide (40 μM) or DMSO incubation for 4 hrs in the presence of the lead molecules (FIG. 7A). […] To confirm the engagement of Cereblon in the mechanism of action of the lead compounds, shRNAs were used to stably knock down Cerebelon, or CD8 control, in HEK293T cells, and the degradation assay for TT-44856 was performed.
The involvement of the ubiquitous VHL E3 ligase in the activity of TT-44881 inducing Tat degradation was also investigated. HEK293T cells overexpressing Tat protein and VHL siRNAs (or si control) were treated with either TT-44881 (60 μM) and DMSO or TT-44881 with a VHL PROTAC (CM11, 500 nM) for 24 hours. siRNAs and PROTACs were used together to maximize the depletion of both VHL isoforms (30 and 19 kDa).

recombinant Tat = target: T2, recombinant Tat (Human immunodeficiency virus type 1 (HXB3 ISOLATE), UniProt P69698); experiment: Recombinant Tat stability in HEK293T cells, western blot; format: cell-based, HIV; conditions: 4 hrs recombinant Tat then 2 hrs compound, n=1
T2 construct: detected with anti-Tat serum
Procedure: Next, the effect of the three leads on the alteration of Tat steady state levels was assessed. Tat expression from an integrated provirus, or from HIV acute infection is generally too low to be detected by western blot. Furthermore, antibodies against Tat are known for their lack of avidity. Tat degradation was thus assessed upon transfection. Flag-Tat or Flag-GFP were individually transfected into HEK293T and 24 hrs later, TT-44856, TT-44863 or TT-44881 were added to the culture, followed by Western blot 24 hrs later (dubbed “degradation assay”) (FIG. 5A). […] Finally, the leads' impact on recombinant Tat protein in HEK293T cells was assessed (FIG. 5D). HEK293T cells were incubated with recombinant Tat for 4 hrs to allow Tat internalization, followed by several thorough washes to remove unincorporated Tat. Cells were then incubated with all three leads (or Triptolide) for an additional 2 hrs. Cells were lysed and analyzed by western blot with an anti-Tat serum.

Tat F38A = Tat F38A (Human immunodeficiency virus type 1 (HXB3 ISOLATE), UniProt P69698, F38A); conditions: TT-44856 and TT-44863 40 μM, TT-44881 60 μM
Text: (§1) The molecular docking of HIV Tat protein bound to dCA was previously reported, informed by a series of more than 60 analogs of dCA, using AutoDock Vina with the NMR HIV Tat Mal protein (D clade) as a template (Protein data Bank, PDB entry 1K5K)21. […] Single changes to residues Y26 and F38 decrease Tat transactivation activity^33-36. […] To validate the molecular docking model, Tat variants with either deletions or mutated residues were used in degradation assays in the presence of leads.

Tat Y26A = Tat Y26A (Human immunodeficiency virus type 1 (HXB3 ISOLATE), UniProt P69698, Y26A); conditions: TT-44856 and TT-44863 40 μM, TT-44881 60 μM
Text: as §1

[1] = target: Tat variants with cysteine or core regions truncated (Human immunodeficiency virus type 1 (HXB3 ISOLATE), UniProt P69698); conditions: TT-44856 and TT-44863 40 μM, TT-44881 60 μM
Text: as §1

Chain of Tat F38A (P69698 whole entry F38A): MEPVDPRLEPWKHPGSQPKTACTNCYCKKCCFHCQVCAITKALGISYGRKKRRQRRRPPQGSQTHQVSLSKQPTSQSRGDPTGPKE
Chain of Tat Y26A (P69698 whole entry Y26A): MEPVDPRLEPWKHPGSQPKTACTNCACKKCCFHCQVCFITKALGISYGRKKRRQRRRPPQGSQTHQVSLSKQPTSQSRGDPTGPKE
T1 sequence (P69698 whole entry): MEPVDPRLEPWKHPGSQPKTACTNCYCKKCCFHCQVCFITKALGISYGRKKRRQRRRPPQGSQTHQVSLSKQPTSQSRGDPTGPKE
T2 sequence (P69698 whole entry): as above

Row | Structure (SMILES) | effect of chloroquine or NH4Cl on compound induced Flag-Tat degradation (Flag-Tat; n=1) | Flag-Tat degradation / steady state (Flag-Tat; HEK293T) | effect of Lenalidomide on compound induced Flag-Tat degradation (Flag-Tat) | effect of MG132 on compound induced Flag-Tat degradation (Flag-Tat) | Flag-Tat degradation upon Cereblon knockdown (Flag-Tat; shRNA Cereblon, HEK293T, TT-44856 40 μM, n=1) | recombinant Tat degradation (recombinant Tat) | Tat degradation, F38A mutation (Tat F38A) | Tat degradation, Y26A mutation (Tat Y26A) | Flag-Tat degradation, cysteine or core regions truncated [1] | Tat degradation upon VHL depletion (Flag-Tat; VHL siRNA and VHL PROTAC CM11 500 nM, 24 hours, TT-44881 60 μM)
1 | CC(C(=O)NCCCn1ccnc1)(c1ccccc1)c1ccccc1 [TT-44856] | do not prevent lead hits induced Flag-Tat degradation | Tat protein degradation was observed | prevents Tat compounds induced Flag-Tat degradation | prevents lead hits induced Flag-Tat degradation | no longer engaging Flag-Tat for degradation; also recorded: diminishes TT-44856 induced Flag-Tat degradation | degraded Tat as opposed to the DMSO control | only weakly reduced lead hits mediated degradation | ablated lead hits' ability to mediate Tat degradation | no longer degraded Flag-Tat | 
2 | COCCOc1ccc(C(F)(F)F)cc1NC(=O)Cn1cc(C(F)(F)F)cc(Cl)c1=O [TT-44863] | do not prevent lead hits induced Flag-Tat degradation | Tat protein degradation was observed | prevents Tat compounds induced Flag-Tat degradation | prevents lead hits induced Flag-Tat degradation |  | degraded Tat as opposed to the DMSO control | only weakly reduced lead hits mediated degradation | ablated lead hits' ability to mediate Tat degradation | no longer degraded Flag-Tat | 
3 | O=C(CCCCN1CCCC1=O)c1nn(-c2ccccc2)c2c1CCC2 [TT-44881] | do not prevent lead hits induced Flag-Tat degradation | Tat protein degradation was observed | prevents Tat compounds induced Flag-Tat degradation | prevents lead hits induced Flag-Tat degradation |  | degraded Tat as opposed to the DMSO control | only weakly reduced lead hits mediated degradation | ablated lead hits' ability to mediate Tat degradation | no longer degraded Flag-Tat | no longer depleted
